According to patent US20250339415A1, “DISULFIDE COMPOUNDS AS MEDICAMENTS” (CYTACOAT AB, priority 2021, published 2025):
≈ marks a conversion by molar mass, not a printed value.

Columns and labels:
Type in all cases: cell-based
[1] = tested on: Enterococcus faecalis #28 (KI, Clinical Isolate); assay: Minimum inhibitory concentration (MIC), visible growth
Protocol: (§1) • 1. Using a sterile inoculating loop, transfer bacteria/Candida albicans from frozen stock culture and streak them on a fresh LA plate. • 2. Incubate the plate at 37° C. overnight (o/n) (18-24 h).
(§2) • 1. Prepare bacterial culture by adding 20 ml Mueller Hinton broth (*) to a 250-ml Erlenmeyer flask with sidearm. • 2. Using a sterile inoculating loop, pick approximately 10 colonies from the o/n bacterial culture and transfer bacteria to the flask. • 3. Incubate the E-flask with bacteria on a rotating shaker at 37° C. until OD590=0.40. This OD should equal an approximate bacterial count of 1×10^8 cfu/ml (**) • This is measured using a colorimeter (or spectrophotometer). Set reference and press R (=reference) first, then measure the bacterial culture by pressing T (=test). • 4. At OD590 0.40, serially dilute the bacterial suspension 1:10 000 in Mueller Hinton broth to obtain a bacterial target concentration of 1×10^4 cfu/ml. Determine the initial inoculation by serially diluting 0.1 ml in 0.9 ml blanks of sterile PBS and plating 0.1 ml aliquots to LA plates, preferably. • 5. Different concentrations of the tested compound are prepared in 0.6-0.8 ml of the final dilution of bacterial suspension and placed in 2-ml test tubes. • 6. Incubate test tubes in an orbital shaker incubator at 37° C. for 24 h.
(§3) • 7. Analyze visible growth, i.e. “Foggy” or “Clear”. MIC is being defined as the interval between the highest “Foggy” and the lowest “Clear” concentration of the compound.
(§4) Different concentrations of PDEA (Example 1) in Mueller Hinton medium were prepared. Bacteria were inoculated to a concentration of 20 000 CFU/ml and incubated at 37° C. for 24 hours. Minimum inhibitory concentrations (MICs) were determined by analyzing visible growth, i.e., readouts were “Clear” and “Foggy”.
(§5) Different concentrations of the quaternary ammonium PDEA (Example 2) in Mueller Hinton medium were prepared. Bacteria were inoculated to a concentration of 20 000 CFU/ml and incubated at 37° C. for 24 hours. Minimum inhibitory concentrations (MICs) were determined by analyzing visible growth, i.e., readouts were “Clear” and “Foggy”.
(§6) Different concentrations of this compound in Mueller Hinton medium were prepared. Bacteria were inoculated to a concentration of 20 000 CFU/ml and incubated at 37° C. for 24 hours. Minimum inhibitory concentrations (MICs) were determined by analyzing visible growth, i.e., readouts were “Clear” and “Foggy”.
(§7) Different concentrations of this compound were prepared in Mueller Hinton broth. Bacteria were inoculated to a concentration of 20 000 CFU/ml and incubated at 37° C. for 24 hours. Minimum inhibitory concentrations (MICs) were determined by analyzing visible growth, i.e., readouts were “Clear” and “Foggy”.

[2] = tested on: Enterococcus faecium #11 (KI, Clinical Isolate); assay: as above
Protocol: as §1, §2, §3, §4, §5, §6, §7

Escherichia coli CFT073 = assay: as above
Protocol: as §1, §2, §3, §4, §5, §6, §7

[3] = tested on: Klebsiella pneumoniae AO15200; assay: as above
Protocol: as §1, §2, §3, §4, §5, §6, §7

[4] = tested on: Pseudomonas aeruginosa PA02; assay: as above
Protocol: as §1, §2, §3, §4, §5, §6, §7

[5] = tested on: Staphylococcus aureus B5381; assay: as above
Protocol: as §1, §2, §3, §4, §5, §6, §7

[6] = tested on: Staphylococcus epidermidis Se19 (Clinical Isolate, Jan Ingemar Falk); assay: as above
Protocol: as §1, §2, §3, §4, §5, §6, §7

Candida albicans = assay: Minimum inhibitory concentration (MIC), visible growth, YPD broth
Protocol: as §1, §2, §3
(*) When testing Candida albicans, Yeast extract Peptone Dextrose (YPD) broth is being used.
(**) For Candida albicans it is equal to 1×10^7
Different concentrations of PDEA were also prepared in Yeast extract Peptone Dextrose (YPD) broth. Candida albicans were inoculated to a concentration of 20 000 CFU/ml and incubated at 37° C. for 24 hours. Readouts were “Clear” and “Foggy”.
Different concentrations of the quaternary ammonium PDEA (Example 2) were also prepared in Yeast extract Peptone Dextrose (YPD) broth. Candida albicans were inoculated to a concentration of 20 000 CFU/ml and incubated at 37° C. for 24 hours. Readouts were “Clear” and “Foggy”.
Different concentrations of the Para position-PDEA” is (S)-4-pyridylthio cysteamine were also prepared in Yeast extract Peptone Dextrose (YPD) broth. Candida albicans were inoculated to a concentration of 20 000 CFU/ml and incubated at 37° C. for 24 hours. Readouts were “Clear” and “Foggy”.
Different concentrations of “Carboxylic acid PDEA” is 3-(2-Pyridyldithio)propanoic acid (CAS: 68617-64-1) were also prepared in Yeast extract Peptone Dextrose (YPD) broth. Candida albicans were inoculated to a concentration of 20 000 CFU/ml and incubated at 37° C. for 24 hours. Readouts were “Clear” and “Foggy”.

E. coli = assay: Combination therapy: Gentamycin with PDEA, visible growth; conditions: No PDEA
Protocol: (§8) Different concentrations of Gentamycin in Mueller Hinton were prepared in 3 different concentrations of PDEA. E. coli and S. aureus were inoculated (10^5) and were incubated O/N.
(§9) Readouts were “Clear” and “Foggy”.

S. aureus = assay: as above; conditions: No PDEA
Protocol: as §8, §9

O=C(O)CCSSc1ccccn1 [Example 4, 3-(2-Pyridyldithio)propanoic acid]
visible growth readout ([1]; 0.05 mM): Foggy
visible growth readout ([1]; 0.1 mM): Foggy
visible growth readout ([1]; 0.25 mM): Foggy
visible growth readout ([1]; 0.5 mM): Clear
visible growth readout ([1]; 1 mM): Clear
visible growth readout ([1]; 2 mM): Clear
visible growth readout ([1]; 4 mM): Clear
MIC ([1]; Enterococcus faecalis, Mueller Hinton, 20 000 CFU/ml, 37° C., 24 hours, read-out: MIC): 250 to 500 µM (≈ 53.8 to 108 µg/mL)
visible growth readout ([2]; 0.05 mM): Foggy
visible growth readout ([2]; 0.1 mM): Foggy
visible growth readout ([2]; 0.25 mM): Clear
visible growth readout ([2]; 0.5 mM): Clear
visible growth readout ([2]; 1 mM): Clear
visible growth readout ([2]; 2 mM): Clear
visible growth readout ([2]; 4 mM): Clear
MIC ([2]; Enterococcus faecium, Mueller Hinton, 20 000 CFU/ml, 37° C., 24 hours, read-out: MIC): 100 to 250 µM (≈ 21.5 to 53.8 µg/mL)
visible growth readout (Escherichia coli CFT073; 0.05 mM): Foggy
visible growth readout (Escherichia coli CFT073; 0.1 mM): Foggy
visible growth readout (Escherichia coli CFT073; 0.25 mM): Foggy
visible growth readout (Escherichia coli CFT073; 0.5 mM): Foggy
visible growth readout (Escherichia coli CFT073; 1 mM): Foggy
visible growth readout (Escherichia coli CFT073; 2 mM): Foggy
visible growth readout (Escherichia coli CFT073; 4 mM): Clear
MIC (Escherichia coli CFT073; Escherichia coli, CFT073, Mueller Hinton, 20 000 CFU/ml, 37° C., 24 hours, read-out: MIC): 2000 to 4000 µM (≈ 431 to 861 µg/mL)
visible growth readout ([3]; 0.05 mM): Foggy
visible growth readout ([3]; 0.1 mM): Foggy
visible growth readout ([3]; 0.25 mM): Foggy
visible growth readout ([3]; 0.5 mM): Foggy
visible growth readout ([3]; 0.8 mM (second series)): Foggy
visible growth readout ([3]; 1 mM): Foggy
visible growth readout ([3]; 2 mM): Foggy
visible growth readout ([3]; 3.2 mM (second series)): Foggy
visible growth readout ([3]; 4 mM): Foggy
visible growth readout ([3]; 6.4 mM (second series)): Clear
visible growth readout ([3]; 12.8 mM (second series)): Clear
visible growth readout ([3]; 0.1.6 mM (second series)): Foggy
MIC ([3]; Klebsiella pneumoniae, AO15200, Mueller Hinton, 20 000 CFU/ml, 37° C., 24 hours, read-out: MIC): 3200 to 6400 µM (≈ 689 to 1380 µg/mL)
visible growth readout ([4]; 0.05 mM): Foggy
visible growth readout ([4]; 0.1 mM): Foggy
visible growth readout ([4]; 0.25 mM): Foggy
visible growth readout ([4]; 0.5 mM): Foggy
visible growth readout ([4]; 0.8 mM (second series)): Foggy
visible growth readout ([4]; 1 mM): Foggy
visible growth readout ([4]; 2 mM): Foggy
visible growth readout ([4]; 3.2 mM (second series)): Foggy
visible growth readout ([4]; 4 mM): Foggy
visible growth readout ([4]; 6.4 mM (second series)): Foggy
visible growth readout ([4]; 12.8 mM (second series)): Clear
visible growth readout ([4]; 0.1.6 mM (second series)): Foggy
MIC ([4]; Pseudomonas aeruginosa, PA02, Mueller Hinton, 20 000 CFU/ml, 37° C., 24 hours, read-out: MIC): 6400 to 12800 µM (≈ 1380 to 2760 µg/mL)
visible growth readout ([5]; 0.05 mM): Foggy
visible growth readout ([5]; 0.1 mM): Foggy
visible growth readout ([5]; 0.25 mM): Foggy
visible growth readout ([5]; 0.5 mM): Foggy
visible growth readout ([5]; 1 mM): Clear
visible growth readout ([5]; 2 mM): Clear
visible growth readout ([5]; 4 mM): Clear
visible growth readout ([6]; 0.05 mM): Foggy
visible growth readout ([6]; 0.1 mM): Foggy
visible growth readout ([6]; 0.25 mM): Clear
visible growth readout ([6]; 0.5 mM): Clear
visible growth readout ([6]; 1 mM): Clear
visible growth readout ([6]; 2 mM): Clear
visible growth readout ([6]; 4 mM): Clear
MIC ([6]; Staphylococcus epidermidis, Mueller Hinton, 20 000 CFU/ml, 37° C., 24 hours, read-out: MIC): 100 to 250 µM (≈ 21.5 to 53.8 µg/mL)
visible growth readout (Candida albicans; 0.05 mM): Foggy
visible growth readout (Candida albicans; 0.1 mM): Foggy
visible growth readout (Candida albicans; 0.25 mM): Foggy
visible growth readout (Candida albicans; 0.5 mM): Foggy
visible growth readout (Candida albicans; 1 mM): Foggy
visible growth readout (Candida albicans; 2 mM): Clear
visible growth readout (Candida albicans; 4 mM): Clear
MIC (Candida albicans; Candida albicans, YPD broth, 20 000 CFU/ml, 37° C., 24 hours, read-out: MIC): 1000 to 2000 µM (≈ 215 to 431 µg/mL)

Gentamycin
Visible growth readout (Clear/Foggy) (E. coli; Gentamycin 0.0156 μg/ml): Foggy
Visible growth readout (Clear/Foggy) (E. coli; Gentamycin 0.03125 μg/ml): Foggy
Visible growth readout (Clear/Foggy) (E. coli; Gentamycin 0.0625 μg/ml): Foggy
Visible growth readout (Clear/Foggy) (E. coli; Gentamycin 0.125 μg/ml): Foggy
Visible growth readout (Clear/Foggy) (E. coli; Gentamycin 0.25 μg/ml): Foggy
Visible growth readout (Clear/Foggy) (E. coli; Gentamycin 0.5 μg/ml): Foggy
Visible growth readout (Clear/Foggy) (E. coli; Gentamycin 1 μg/ml): Clear
Visible growth readout (Clear/Foggy) (E. coli; Gentamycin 2 μg/ml): Clear
Visible growth readout (Clear/Foggy) (E. coli; Gentamycin 4 μg/ml): Clear
Visible growth readout (Clear/Foggy) (E. coli; Gentamycin 8 μg/ml): Clear
Visible growth readout (Clear/Foggy) (E. coli; Gentamycin 16 μg/ml): Clear
Visible growth readout (Clear/Foggy) (E. coli; Gentamycin 32 μg/ml): Clear
Visible growth readout (Clear/Foggy) (E. coli; Gentamycin 64 μg/ml): Clear
Visible growth readout (Clear/Foggy) (E. coli; Gentamycin 128 μg/ml): Clear
Visible growth readout (Clear/Foggy) (E. coli; Gentamycin 256 μg/ml): Clear
Visible growth readout (Clear/Foggy) (S. aureus; Gentamycin 0.0156 μg/ml): Foggy
Visible growth readout (Clear/Foggy) (S. aureus; Gentamycin 0.03125 μg/ml): Foggy
Visible growth readout (Clear/Foggy) (S. aureus; Gentamycin 0.0625 μg/ml): Foggy
Visible growth readout (Clear/Foggy) (S. aureus; Gentamycin 0.125 μg/ml): Foggy
Visible growth readout (Clear/Foggy) (S. aureus; Gentamycin 0.25 μg/ml): Clear
Visible growth readout (Clear/Foggy) (S. aureus; Gentamycin 0.5 μg/ml): Clear
Visible growth readout (Clear/Foggy) (S. aureus; Gentamycin 1 μg/ml): Clear
Visible growth readout (Clear/Foggy) (S. aureus; Gentamycin 2 μg/ml): Clear
Visible growth readout (Clear/Foggy) (S. aureus; Gentamycin 4 μg/ml): Clear
Visible growth readout (Clear/Foggy) (S. aureus; Gentamycin 8 μg/ml): Clear
Visible growth readout (Clear/Foggy) (S. aureus; Gentamycin 16 μg/ml): Clear
Visible growth readout (Clear/Foggy) (S. aureus; Gentamycin 32 μg/ml): Clear
Visible growth readout (Clear/Foggy) (S. aureus; Gentamycin 64 μg/ml): Clear
Visible growth readout (Clear/Foggy) (S. aureus; Gentamycin 128 μg/ml): Clear
Visible growth readout (Clear/Foggy) (S. aureus; Gentamycin 256 μg/ml): Clear
